Patent US12391672B2, “Solid forms comprising (S)-4-(4-(4-(((2-(2,6-dioxopiperidin-3-yl)-1-oxoisoindolin-4-yl)oxy)methyl)benzyl)piperazin-1-yl)-3-fluorobenzonitrile and salts thereof, and compositions comprising and methods of using the same” (Celgene Corporation, priority 2019, dated 2025)

How the values were obtained:
Assay type in all cases: physicochemical
[1] = Solubility of polymorphic forms in physiologically relevant media and final pH
Excerpt: Solubility data of the several polymorphic forms of Compound 1 in physiologically relevant media and the final pH of these solutions are summarized in the following tables.

[2] = HBr salt solubility in buffers (1 mg/mL slurries, mother liquor by HPLC); conditions: all buffers tested
Procedure: (§1) The HBr salt was largely insoluble in various buffers when 1 mg/mL slurries were prepared and the mother liquor concentration determined (by HPLC): <0.05 mg/mL in all buffers tested.

[3] = Dynamic vapor sorption / hygroscopicity
Method in brief: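 Sample equilibrated at 50% r.h. on a microbalance, then one cycle at ±5% r.h. h^−1 spanning 0–95% r.h., with 5 h holds at 0% and 95% r.h. and 2 h holds at 50% r.h., run either desorption-first or sorption-first. Hygroscopicity classed from mass gain at 85% r.h. relative to initial mass.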

[4] = Solid state stability under accelerated storage conditions; conditions: 40° C./75% RH, 80° C. and ambient light/temperature for 1 week
Method in brief: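 Solid forms stored at 60 °C and 60 °C/75% RH (Form A 1 week, Form B 2 weeks); Form K held 14 d at 40 °C, 40 °C/75% RH, 60 °C, 60 °C/75% RH and light, versus refrigerated/ambient. Assessed by DSC/TGA, appearance, HPLC purity, chiral HPLC (S-isomer area %) and XRPD post-DVS.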

[5] = Competitive slurry and slurry stability experiments
Procedure: Form B was obtained at room temperature while form C was obtained at 45° C. in acetone alone.
as §1

## Br.N#Cc1ccc(N2CCN(Cc3ccc(COc4cccc5c4CN([C@H]4CCC(=O)NC4=O)C5=O)cc3)CC2)c(F)c1
[1]; FaSSIF
  Solubility: <LOQ
[1]; FeSSiF
  Solubility: 0.111 mg/mL
[1]; SGF with pepsin
  Solubility: 0.077 mg/mL
[1]; Water, t0
  Solubility: 0.301(t0), mg/ml
[1]; Water, t24
  Solubility: 0.212 mg/mL
[1]; pH 1 buffer HC1/NaC1
  Solubility: 0.018 mg/mL
[1]; pH 3 buffer (phosphate)
  Solubility: 0.032 mg/mL
[1]; pH 4 buffer (acetate)
  Solubility: 0.038 mg/mL
[1]; pH 5 buffer (acetate)
  Solubility: 0.004 mg/mL
[1]; solubility sample in FaSSIF
  Final pH: 6.40
[1]; solubility sample in FeSSiF
  Final pH: 5.16
[1]; solubility sample in SGF with pepsin
  Final pH: 1.15
[1]; solubility sample in Water
  Final pH: 4.53
[1]; solubility sample in pH 1 buffer HC1/NaC1
  Final pH: 0.95
[1]; solubility sample in pH 3 buffer (phosphate)
  Final pH: 3.11
[1]; solubility sample in pH 4 buffer (acetate)
  Final pH: 4.18
[1]; solubility sample in pH 5 buffer (acetate)
  Final pH: 5.08
[2]
  mother liquor concentration in buffers: < 0.05 mg/mL
[3]; DVS, class by mass gain at 85% r.h.
  hygroscopicity: slightly hygroscopic (slightly hygroscopic (mass increase of <2% but ≥0.2%))
[3]; after the DVS humidity cycle
  solid form after DVS cycle: remains as Form A
[3]; relative humidity from about 0% to about 95%
  DVS mass increase: about 0.7%
[3]; relative humidity from about 5% to about 90%
  DVS mass increase: about 0.7%
[3]; up to 90% RH
  DVS mass increase: ~0.69%
[4]
  physical (XRPD) and chemical (HPLC) stability: both physically and chemically stable
[5]; slurried in water for ~24 h
  disproportionation in water: did not appear to disproportionate back to the free base
[5]; various water activities
  slurry in acetone/water mixtures (XRPD): no hydrate formation evident
